Activity calls are given as the source filed them. No cut-off for these calls is given here.
Tests used:
HT-29 [1] = experiment: Cytotoxicity against human HT-29 cells assessed as growth inhibition at 10 nM after 3 days by XTT assay; format: functional, cell-based
PC-3 [2] = experiment: Cytotoxicity against human PC3 cells assessed as growth inhibition at 10 nM after 3 days by XTT assay relative to control; format: functional; details: PC-3, 72 h, read-out: GI
[3] = Cytotoxicity against mock-infected human MT4 cells assessed as reduction in cell viability after 96 hrs by MTT assay; format: cell-based
Enterococcus faecalis = experiment: Antibacterial activity against Enterococcus faecalis DSM 2570; format: functional
[4] = system: Human immunodeficiency virus 1; experiment: Antiviral activity against HIV1 3B infected in human MT4 cells assessed as protection against virus-induced cytopathogenicity after 4 days by MTT assay; format: functional, organism-based; details: Human immunodeficiency virus 1, 3B, MT4, 96 h
PC-3 [5] = experiment: Cytotoxicity against human PC3 cells assessed as growth inhibition at 10 uM after 3 days by XTT assay relative to control; format: functional; details: PC-3, 72 h, read-out: GI
Escherichia coli = experiment: Antibacterial activity against Escherichia coli DSM 1103; format: functional
Staphylococcus aureus = experiment: Antibacterial activity against Staphylococcus aureus DSM 2569; format: functional
PC-3 [6] = experiment: Cytotoxicity against human PC3 cells assessed as growth inhibition at 125 uM after 3 days by XTT assay relative to control; format: functional; details: PC-3, 72 h, read-out: GI
HT-29 [7] = experiment: Cytotoxicity against human HT-29 cells assessed as growth inhibition at 125 uM after 3 days by XTT assay relative to control; format: functional; details: HT-29, 72 h, read-out: GI
Caenorhabditis elegans [8] = experiment: Antihelmintic activity against Caenorhabditis elegans Bristol N2 assessed as mortality at 100 ug/ml after 30 mins by microscopic analysis (reference value: 3 +/- 3%); format: functional
Caenorhabditis elegans [9] = experiment: Antihelmintic activity against Caenorhabditis elegans Bristol N2 assessed as mortality at 12.5 ug/ml after 30 mins by microscopic analysis; format: functional, organism-based
Caenorhabditis elegans [10] = experiment: Antihelmintic activity against Caenorhabditis elegans Bristol N2 assessed as mortality at 10 ug/ml after 30 mins by microscopic analysis (reference value: 3 +/- 3%); format: functional, organism-based

In the case of CC(C)C(=O)c1c(O)cc2c3c1OC1(C)CCC(C3C1)C(C)(C)O2 (configuration not stated), the “growth inhibition (GI)” value (HT-29 [1]) is reported as “inactive”, the inhibition of growth at 0.01 µM (PC-3 [2]) is reported as under 20% and the CC50 at 96 h [3] is reported as over 100 µM. It also gave an MIC (Enterococcus faecalis) of over 1 µg/mL, an EC50 [4] of over 100 µM and an inhibition of growth at 10 µM (PC-3 [5]) of 20%. It also gave an MIC (Escherichia coli) of over 1 µg/mL and an MIC (Staphylococcus aureus) of over 1 µg/mL.

With C[C@@H]1CC[C@@]2(OC1)O[C@H]1[C@@H](O)[C@H]3[C@@H]4CC[C@H]5C[C@@H](O[C@@H]6O[C@H](CO)[C@H](O[C@@H]7O[C@H](CO)C(O)[C@H](O[C@@H]8OC[C@@H](O)[C@H](O)[C@H]8O)[C@H]7O[C@@H]7O[C@H](CO)[C@H](O)[C@H](O[C@@H]8O[C@H](CO)[C@@H](O)[C@H](O)[C@H]8O)[C@H]7O)[C@H](O)[C@H]6O)[C@H](O)C[C@]5(C)[C@H]4CC[C@]3(C)[C@H]1[C@@H]2C (some centres not stated) [DIGITONIN] the inhibition of growth at 125 µM (PC-3 [6]) was 100% and the inhibition of growth at 125 µM (HT-29 [7]) was 100%.

In the case of CC(C)=CCC/C(C)=C/Cc1c(O)cc(O)c(C(=O)C(C)C)c1O, the “growth inhibition (GI)” value (HT-29 [1]) is reported as “inactive”, the inhibition of growth at 0.01 µM (PC-3 [2]) is reported as under 20% and the CC50 at 96 h [3] is reported as over 100 µM. For the same molecule, the MIC (Enterococcus faecalis) was over 1 µg/mL, the EC50 [4] was over 100 µM and the inhibition of growth at 10 µM (PC-3 [5]) was under 20%. For the same molecule, the Activity (Caenorhabditis elegans [8]) was 0.7%, the MIC (Escherichia coli) was over 1 µg/mL and the Activity (Caenorhabditis elegans [9]) was “inactive”. The MIC (Staphylococcus aureus) was over 1 µg/mL.

With CCC(C)C(=O)c1c(O)cc(O)c(C/C=C(\C)CCC=C(C)C)c1O (configuration not stated) the “growth inhibition (GI)” value (HT-29 [1]) was “inactive”, the inhibition of growth at 0.01 µM (PC-3 [2]) was under 20% and the CC50 at 96 h [3] was 26.7 µM. It also gave an MIC (Enterococcus faecalis) of over 1 µg/mL, an EC50 [4] of over 26.7 µM and an inhibition of growth at 10 µM (PC-3 [5]) of 20%. The Activity (Caenorhabditis elegans [8]) was 37%, the MIC (Escherichia coli) was over 1 µg/mL and the Activity (Caenorhabditis elegans [9]) was “inactive”. The MIC (Staphylococcus aureus) was over 1 µg/mL.

In the case of CC(C)=CCCC1(C)Oc2c(c(O)cc(O)c2C(=O)C(C)C)CC1O (configuration not stated), the “growth inhibition (GI)” value (HT-29 [1]) is reported as “inactive”, the inhibition of growth at 0.01 µM (PC-3 [2]) is reported as under 20% and the CC50 at 96 h [3] is reported as 84 µM. The MIC (Enterococcus faecalis) was over 1 µg/mL, the EC50 [4] was over 84 µM and the inhibition of growth at 10 µM (PC-3 [5]) was under 20%. For the same molecule, the MIC (Escherichia coli) was over 1 µg/mL and the MIC (Staphylococcus aureus) was over 1 µg/mL.

For CC(C)C(=O)c1c(O)cc(O)c2c1O[C@]1(C)CC[C@@H](O)C(C)(C)[C@H]1C2 (relative stereo), the “growth inhibition (GI)” value (HT-29 [1]) was “inactive”, the inhibition of growth at 0.01 µM (PC-3 [2]) was under 20% and the CC50 at 96 h [3] was 41 µM. For the same molecule, the MIC (Enterococcus faecalis) was over 1 µg/mL, the EC50 [4] was over 41 µM and the inhibition of growth at 10 µM (PC-3 [5]) was under 20%. The Activity (Caenorhabditis elegans [8]) was 0.7%, the MIC (Escherichia coli) was over 1 µg/mL and the Activity (Caenorhabditis elegans [9]) was “inactive”. It also gave an MIC (Staphylococcus aureus) of over 1 µg/mL.

With c1ccc2[nH]c(-c3cscn3)nc2c1 [THIABENDAZOLE] the Activity (Caenorhabditis elegans [8]) was 19%.

For CCC(C)C(=O)c1c(O)cc(O)c2c1O[C@](C)(CCC=C(C)C)[C@@H](O)C2 (some centres not stated) [EMPETRIKARINOL B], the “growth inhibition (GI)” value (HT-29 [1]) was “inactive”, the inhibition of growth at 0.01 µM (PC-3 [2]) was under 20% and the CC50 at 96 h [3] was 45 µM. For the same molecule, the MIC (Enterococcus faecalis) was over 1 µg/mL, the EC50 [4] was over 45 µM and the inhibition of growth at 10 µM (PC-3 [5]) was under 20%. The Activity (Caenorhabditis elegans [8]) was 0.7%, the MIC (Escherichia coli) was over 1 µg/mL and the Activity (Caenorhabditis elegans [9]) was “inactive”. It also gave an MIC (Staphylococcus aureus) of over 1 µg/mL.

In the case of CCC(C)C(=O)c1c(O)cc2c3c1OC1(C)CCC(C3C1)C(C)(C)O2 (configuration not stated), the “growth inhibition (GI)” value (HT-29 [1]) is reported as “inactive”, the inhibition of growth at 0.01 µM (PC-3 [2]) is reported as under 20% and the CC50 at 96 h [3] is reported as over 100 µM. For the same molecule, the MIC (Enterococcus faecalis) was over 1 µg/mL, the EC50 [4] was over 100 µM and the inhibition of growth at 10 µM (PC-3 [5]) was under 20%. It also gave an MIC (Escherichia coli) of over 1 µg/mL and an MIC (Staphylococcus aureus) of over 1 µg/mL.

For CC(C)=CCC/C(C)=C/Cc1c(O)cc(O)c(C(=O)c2ccccc2)c1O, the “growth inhibition (GI)” value (HT-29 [1]) was “inactive”, the inhibition of growth at 0.01 µM (PC-3 [2]) was under 20% and the CC50 at 96 h [3] was 69 µM. The MIC (Enterococcus faecalis) was over 1 µg/mL, the EC50 [4] was over 69 µM and the inhibition of growth at 10 µM (PC-3 [5]) was under 20%. The Activity (Caenorhabditis elegans [8]) was 0.7%, the MIC (Escherichia coli) was over 1 µg/mL and the Activity (Caenorhabditis elegans [9]) was “inactive”. It also gave an MIC (Staphylococcus aureus) of over 1 µg/mL.

In the case of CC(C)C(=O)c1c(O)cc2c3c1OC(C)(C)C1CCC(C)(CC31)O2 (configuration not stated), the CC50 at 96 h [3] is reported as 18.7 µM.

IVERMECTIN gave an Activity (Caenorhabditis elegans [10]) of 99%.

With CCC(C)C(=O)c1c(O)cc2c3c1OC(C)(C)C1CCC(C)(CC31)O2 (configuration not stated) [EMPETRIFRANZINAN C] the “growth inhibition (GI)” value (HT-29 [1]) was “inactive”, the inhibition of growth at 0.01 µM (PC-3 [2]) was under 20% and the CC50 at 96 h [3] was 45 µM. For the same molecule, the MIC (Enterococcus faecalis) was over 1 µg/mL, the EC50 [4] was over 45 µM and the inhibition of growth at 10 µM (PC-3 [5]) was 20%. The MIC (Escherichia coli) was over 1 µg/mL and the MIC (Staphylococcus aureus) was over 1 µg/mL.

Source: ChEMBL document CHEMBL3611984, “Isolation and anticancer, anthelminthic, and antiviral (HIV) activity of acylphloroglucinols, and regioselective synthesis of empetrifranzinans from Hypericum roeperianum” (Bioorg Med Chem, 2015)
